{"source": "patent US12180204B1", "about": "“2-(benzo[d]thiazol-2-yl)-N′-(2-(5-phenyl-1,3,4-oxadiazol-2-ylthio)acetoxy)acetimidamide as an antimicrobial compound” (priority 2023, dated 2024)", "tested_on": "Bacillus cereus, Staphylococcus aureus, Pseudomonas aeruginosa, Escherichia coli, Aspergillus flavus, Chrysosporium keratinophilum", "experiment": "Agar plate disc-diffusion antimicrobial test", "assay_type": "cell-based", "settings": "disc wetted with 10 μL of 10 mg/mL in DMSO; 37° C., 48 h, 72 h for fungi; DMSO control zone subtracted", "method": "The agar plate disc-diffusion method was applied. Sterilized filter papers (6 mm in diameter) were wetted with 10 μL of a solution of 2-(benzo[d]thiazol-2-yl)-N′-(2-(5-phenyl-1,3,4-oxadiazol-2-ylthio)acetoxy)acetimidamide (3) to be tested, containing 10 mg/mL in DMSO, and the discs were allowed to air dry. The discs were then placed onto the surface of agar plates (nutrient agar for bacteria and Sabouraud's dextrose agar for fungi) seeded with the test organism. Each plate contained 15 mL of the agar medium, previously seeded with 0.2 mL of the broth culture of each organism pregrown for 18 hours. The plates were incubated at 37° C. for 48 h, and 72 h for fungi. The inhibition zones were measured in mm. Discs impregnated with DMSO were used as a control, and its inhibition zone was subtracted from the tested compound actual inhibition zone. […] The antibacterial activity was screened against gram positive bacteria namely Bacillus cereus and Staphylococcus aureus and gram-negative bacterial strains namely Pseudomonas aeruginosa and Escherichia coli, while the antifungal activity was screened against Aspergillus flavus and Chrysosporium keratinophilum."}
{"smiles": "N/C(Cc1nc2ccccc2s1)=N\\OC(=O)CSc1nnc(-c2ccccc2)o1", "note": "[compound 3, 2-(benzo[d]thiazol-2-yl)-N′-(2-(5-phenyl-1,3,4-oxadiazol-2-ylthio)acetoxy)acetimidamide]", "values": [{"measurement": "antimicrobial activities (inhibition zones)", "value": "high antimicrobial activities"}]}
